According to paper PMC9232501, “Results of the phase I CCTG IND.231 trial of CX-5461 in patients with advanced solid tumors enriched for DNA-repair deficiencies” (Nature Communications, 2022):
Where “and” joins values, the source holds several entries; their conditions need not be identical. Equal entries are not always repeated.

Test: Plasma pharmacokinetics of CX-5461 (HPLC-MS/MS, non-compartmental)
Type: in vivo, human
Design: Day 1 CX-5461 plasma concentration: unit not given here
Details: for Day 1 Cmax / Day 8 or 15 Cmax / Day 1 AUC / Day 8 or 15 AUC: one patient per datapoint; for Day 1 Cmax / Day 8 or 15 Cmax: in ng/mL; for Day 1 AUC / Day 8 or 15 AUC: in ng·h/mL (unit assumed)
Protocol: PK was assessed on all patients in the escalation phase. Venous blood samples were collected on treatment days 1, 8, and 15 (where applicable), and plasma CX-5461 was analyzed with HPLC-MS/MS (schedule details in Supplementary Table 3). PK parameters were calculated with non-compartmental methods. […] The protocol was amended to allow submission of a ctDNA sample and in a further amendment, a mandatory skin biopsy (pre-treatment and cycle 1 day 15) to study phototoxic effects. Fresh tumor biopsies were optional.
Supplementary Table 3. Schedule for collection of CX5461 pharmacokinetics
During infusion at 30 minutes
Immediately post infusion then:
C1D1 30 minutes post infusion
C1D2 24 hours post infusion
C1D3 48 hours post infusion
C1D4 72 hours post infusion
Immediately post infusion then
C1D15 30 minutes post infusion
C1D16 24 hours post infusion
In addition to the specific time points listed above, additional samples were to be collected from […]

Cc1cnc(CNC(=O)c2c(=O)c3ccc(N4CCCN(C)CC4)nc3n3c2sc2ccccc23)cn1 [CX-5461]
Day 1 CX-5461 plasma concentration (50 mg/m2, Time 0, individual patients): 623
Day 1 CX-5461 plasma concentration (50 mg/m2, Time 24, individual patients): 40.3 and 34
Day 1 CX-5461 plasma concentration (50 mg/m2, Time 48, individual patients): 40 and 22.9
Day 1 CX-5461 plasma concentration (50 mg/m2, Time 72, individual patients): 16.6 and 12.9
Day 1 CX-5461 plasma concentration (100 mg/m2, Time 24, individual patients): 53.2 and 76.4 and 34.5 and 70.1
Day 1 CX-5461 plasma concentration (100 mg/m2, Time 48, individual patients): 49 and 52 and 48
Day 1 CX-5461 plasma concentration (100 mg/m2, Time 72, individual patients): 28 and 33.5 and 33.8
Day 1 CX-5461 plasma concentration (150 mg/m2, Time 0, individual patients): 415 and 821
Day 1 CX-5461 plasma concentration (150 mg/m2, Time 24, individual patients): 176 and 102 and 165 and 350
Day 1 CX-5461 plasma concentration (150 mg/m2, Time 48, individual patients): 135 and 49 and 101 and 265
Day 1 CX-5461 plasma concentration (150 mg/m2, Time 72, individual patients): 90.2 and 31.2 and 92.6 and 180
Day 1 CX-5461 plasma concentration (200 mg/m2, Time 0, individual patients): 218 and 3210 and 1850 and 745
Day 1 CX-5461 plasma concentration (200 mg/m2, Time 24, individual patients): 102 and 78.2 and 124
Day 1 CX-5461 plasma concentration (200 mg/m2, Time 48, individual patients): 55 and 145 and 69.8 and 79.1
Day 1 CX-5461 plasma concentration (200 mg/m2, Time 72, individual patients): 52.5 and 43.9 and 51.7
Day 1 CX-5461 plasma concentration (250 mg/m2, Time 24, individual patients): 125 and 233
Day 1 CX-5461 plasma concentration (250 mg/m2, Time 48, individual patients): 101 and 169
Day 1 CX-5461 plasma concentration (250 mg/m2, Time 72, individual patients): 68 and 111
Day 1 CX-5461 plasma concentration (325 mg/m2, Time 24, individual patients): 160 and 193
Day 1 CX-5461 plasma concentration (325 mg/m2, Time 48, individual patients): 132 and 97
Day 1 CX-5461 plasma concentration (325 mg/m2, Time 72, individual patients): 121 and 69.4
Day 1 CX-5461 plasma concentration (475 mg/m2, Time 24, individual patients): 222 and 204
Day 1 CX-5461 plasma concentration (475 mg/m2, Time 48, individual patients): 199 and 146
Day 1 CX-5461 plasma concentration (475 mg/m2, Time 72, individual patients): 203 and 132
Day 1 CX-5461 plasma concentration (650 mg/m2, Time 24, individual patients): 255 and 361 and 196 and 161 and 173 and 233
Day 1 CX-5461 plasma concentration (650 mg/m2, Time 48, individual patients): 234 and 439 and 165 and 107 and 154
Day 1 CX-5461 plasma concentration (650 mg/m2, Time 72, individual patients): 322 and 261 and 170 and 87.5 and 137 and 154
Day 1 CX-5461 plasma concentration (B: 325 mg/m2, Time 24, individual patients): 254 and 120 and 133 and 175
Day 1 CX-5461 plasma concentration (B: 325 mg/m2, Time 48, individual patients): 156 and 435 and 136
Day 1 CX-5461 plasma concentration (B: 325 mg/m2, Time 72, individual patients): 93.9 and 199 and 103
Day 1 CX-5461 plasma concentration (B: 475 mg/m2, Time 24, individual patients): 401 and 324 and 275 and 184
Day 1 CX-5461 plasma concentration (B: 475 mg/m2, Time 48, individual patients): 288 and 213 and 252
Day 1 CX-5461 plasma concentration (B: 475 mg/m2, Time 72, individual patients): 187 and 199 and 113
Day 1 Cmax (Dose level 50 (mg/m2)): 623 and 1070 and 830 and 388
Day 8 or 15 Cmax (Dose level 50 (mg/m2)): 616 and 1040 and 271
Day 1 AUC (Dose level 50 (mg/m2)): 4080 and 3310
Day 8 or 15 AUC (Dose level 50 (mg/m2)): 6520 and 1970 and 4580
Day 1 Cmax (Dose level 100 (mg/m2)): 1580 and 662 and 799 and 1330
Day 8 or 15 Cmax (Dose level 100 (mg/m2)): 1030 and 243
Day 1 AUC (Dose level 100 (mg/m2)): 4870 and 3830 and 5290
Day 8 or 15 AUC (Dose level 100 (mg/m2)): 7780 and 8830 and 2350
Day 1 Cmax (Dose level 150 (mg/m2)): 2370 and 1080 and 1010
Day 8 or 15 Cmax (Dose level 150 (mg/m2)): 1970 and 1090 and 697
Day 1 AUC (Dose level 150 (mg/m2)): 12000 and 19500 and 11500 and 7650
Day 8 or 15 AUC (Dose level 150 (mg/m2)): 18700 and 23900 and 12600
Day 1 Cmax (Dose level 200 (mg/m2)): 265 and 3210 and 805
Day 8 or 15 Cmax (Dose level 200 (mg/m2)): 1560 and 170 and 2180 and 795
Day 1 AUC (Dose level 200 (mg/m2)): 5690 and 22300 and 12900 and 8410
Day 8 or 15 AUC (Dose level 200 (mg/m2)): 9650 and 2530 and 25500 and 14100
Day 1 Cmax (Dose level 250 (mg/m2)): 867 and 2350 and 1010
Day 8 or 15 Cmax (Dose level 250 (mg/m2)): 1290 and 368 and 654
Day 1 AUC (Dose level 250 (mg/m2)): 16300 and 16100
Day 8 or 15 AUC (Dose level 250 (mg/m2)): 21800 and 18700
Day 1 Cmax (Dose level 325 (mg/m2)): 938 and 960
Day 8 or 15 Cmax (Dose level 325 (mg/m2)): 482 and 1190
Day 1 AUC (Dose level 325 (mg/m2)): 12800 and 11200
Day 8 or 15 AUC (Dose level 325 (mg/m2)): 15200
Day 1 Cmax (Dose level 475 (mg/m2)): 1460 and 2510
Day 8 or 15 Cmax (Dose level 475 (mg/m2)): 1500 and 1940
Day 1 AUC (Dose level 475 (mg/m2)): 17900 and 17100
Day 8 or 15 AUC (Dose level 475 (mg/m2)): 7410 and 31300 and 32900
Day 1 Cmax (Dose level 650 (mg/m2)): 4290 and 1840 and 2280 and 3810 and 3180
Day 8 or 15 Cmax (Dose level 650 (mg/m2)): 6050 and 2790 and 2540 and 5480 and 3990
Day 1 AUC (Dose level 650 (mg/m2)): 29600 and 16700 and 21400
Day 8 or 15 AUC (Dose level 650 (mg/m2)): 48200 and 23200 and 59300 and 44400 and 13900
Day 1 Cmax (Dose level B: 325 (mg/m2)): 1030 and 1200 and 1520
Day 8 or 15 Cmax (Dose level B: 325 (mg/m2)): 3590 and 1510 and 1240
Day 1 AUC (Dose level B: 325 (mg/m2)): 19700 and 20400 and 21500
Day 8 or 15 AUC (Dose level B: 325 (mg/m2)): 48100 and 7080 and 11700 and 7620
Day 1 Cmax (Dose level B: 475 (mg/m2)): 2510 and 2620 and 1660 and 982 and 953
Day 8 or 15 Cmax (Dose level B: 475 (mg/m2)): 1370 and 2630 and 6800 and 1020
Day 1 AUC (Dose level B: 475 (mg/m2)): 43600 and 26400 and 23500 and 32100
Day 8 or 15 AUC (Dose level B: 475 (mg/m2)): 18300 and 14200 and 52600 and 11900 and 7800
concentration at 0.5 h (human, plasma, intravenous, 50 mg/m2, 50 mg/m2, Time 0.5, individual patients, read-out: Day 1 CX-5461 plasma concentration): 155 ng/mL
concentration at 1 h (human, plasma, intravenous, 50 mg/m2, 50 mg/m2, Time 1, individual patients, read-out: Day 1 CX-5461 plasma concentration): 104 ng/mL
concentration at 2 h (human, plasma, intravenous, 50 mg/m2, 50 mg/m2, Time 2, individual patients, read-out: Day 1 CX-5461 plasma concentration): 96.5 ng/mL
concentration at 4 h (human, plasma, intravenous, 50 mg/m2, 50 mg/m2, Time 4, individual patients, read-out: Day 1 CX-5461 plasma concentration): 74.9 ng/mL
concentration at 6 h (human, plasma, intravenous, 50 mg/m2, 50 mg/m2, Time 6, individual patients, read-out: Day 1 CX-5461 plasma concentration): 61.6 ng/mL
concentration at 24 h (human, plasma, intravenous, 50 mg/m2, 50 mg/m2, Time 24, individual patients, read-out: Day 1 CX-5461 plasma concentration): 40 ng/mL
concentration at 48 h (human, plasma, intravenous, 50 mg/m2, 50 mg/m2, Time 48, individual patients, read-out: Day 1 CX-5461 plasma concentration): 24.8 ng/mL
